# pEC50: −log10 of the molar value.
# Test system: TNFα released by PBMCs stimulated by LPS
# Assay: Inhibition of the release of TNFα in peripheral blood mononuclear cells (PBMCs) stimulated by lipopolysaccharide (LPS), ELISA
# Type: cell-based, human
# Settings: LPS 0.1 μg/mL, 20 hours incubation; for Inhibition Degree: compound concentration 3.0 μM; for pEC50: concentration giving 50% TNFα inhibition
# Experimental: Pharmacological Research: Effects on the releasing of TNFα in peripheral blood mononuclear cells (PBMCs) stimulated by lipopolysaccharide (LPS).
# Cytokine TNFα released by PBMCs in the peripheral blood stimulated by lipid polysaccharide (LPS) in vitro was studied.
# PBMCs were collected from blood of at least three volunteers pretreated with heparin by a gradient separation method, and washed three times with a 1640 culture medium (10% calf serum, 2 mM L-glutamine, […] mercaptoethanol, 50 μg/mL streptomycin, and 50 U/mL penicillin). The obtained PBMCs were then placed into a 24-well cell culture plate and the concentration was adjusted to 1×10^6 cells/mL with 1640 culture medium. The compounds to be tested were dissolved in dimethylsulfoxide to obtain a solution having a required concentration. The solution was added to the above-mentioned cell culture medium and cultured in an incubator (5% CO2, 90% humidity) for 1 hour. Then, LPS (Sigma) was added until the concentration reached 0.1 μg/mL (except for the control).
# After 20 hours incubation, the content of TNFα in the supernatant of the PBMC culture medium was assayed by ELISA kit (America Genzyme Co) using standard method. The TNFα inhibition rate was calculated by measured value of the control well (not treated) and the measured value of the test wells (treated with the test compound). The concentration of compounds giving a 50% TNFα inhibition (IC50 value) was calculated using nonlinear regression analysis. Each concentration was determined twice and an average value was practicable.
compound,measurement,setting,value
"O=C1CCC(N2Cc3c(csc3[N+](=O)[O-])C2=O)C(=O)N1 (stereo not shown) [Example 17, 3-(1-nitro-4-oxo-4H-thiophene[3,4-c]pyrrole-5(6H)-yl)piperidine-2,6-dione]",Inhibition Degree,,19%
"Nc1scc2c1CN(C1CCC(=O)NC1=O)C2=O (stereo not shown) [Example 18, 3-(1-amino-4-oxo-4H-thiophene[3,4-c]pyrrole-5(6H)-yl)piperidine-2,6-dione]",Inhibition Degree,,94%
same,pEC50,,7.22
"O=C1CCC(N2C(=O)c3cscc3C2=O)CN1 (stereo not shown) [Example 34, 5-(6-oxo-piperidine-3-yl)-5H-thiophene[3,4-c]pyrrole-4,6-dione]",Inhibition Degree,,18%
"O=C1CCC(N2Cc3ccsc3C2=O)C(=O)N1 (stereo not shown) [Example 33, 3-(6-oxo-4H-thiophene[3,2-c]pyrrole-5(6H)-yl)piperidine-2,6-dione]",Inhibition Degree,,47%
"CCCN1C(=O)CCC(N2Cc3cscc3C2=O)C1=O (stereo not shown) [Example 11, 3-(4-oxo-4H-thiophene[3,4-c]pyrrol-5(6H)-yl)-1-propylpiperidine-2,6-dione]",Inhibition Degree,,22%
"O=C1CCC(N2Cc3cscc3C2=O)C(=O)N1 (stereo not shown) [Example 9, 3-(4-oxo-4H-thiophene[3,4-c]pyrrol-5(6H)-yl)piperidine-2,6-dione]",Inhibition Degree,,32%
"O=C1CCC(N2C(=O)c3ccccc3C2=O)C(=O)N1 (stereo not shown) [Thalidomide, reference compound]",inhibition at 100 µM,"Homo sapiens, PBMC, compound concentration 100 μM, read-out: Inhibition Degree",22%
same,pEC50,"Homo sapiens, PBMC",3.74
"CC1(N2Cc3c(csc3N)C2=O)CCC(=O)NC1=O (stereo not shown) [Example 20, 3-methyl-3-(1-amino-4-oxo-4H-thiophene[3,4-c]pyrrole-5(6H)-yl)piperidine-2,6-dione]",Inhibition Degree,,76%
same,pEC50,,6.74
"CC1(N2Cc3cscc3C2=O)CCC(=O)NC1=O (stereo not shown) [Example 16, 3-methyl-3-(4-oxo-4H-thiophene[3,4-c]pyrrole-5(6H)-yl)piperidine-2,6-dione]",Inhibition Degree,,38%
"CN1C(=O)CCC(N2Cc3cscc3C2=O)C1=O (stereo not shown) [Example 10, 1-methyl-3-(4-oxo-4H-thiophene[3,4-c]pyrrol-5(6H)-yl)piperidine-2,6-dione]",Inhibition Degree,,28%
